From US20080114041A1, “Benzothiazolesulfonamides” (AstraZeneca AB, priority 2004, published 2008)

Biological target: T1, hVR1 (Homo sapiens, UniProt Q8NER1)
T1 construct: expressed in transfected cells
Experiment: hVR1 FLIPR (Fluorometric Image Plate Reader) screening assay
Assay type: cell-based
Conditions: transfected CHO cells stably expressing hVR1; inhibition of calcium increase after agonist (50 nM capsaicin or MES buffer pH 5.2); agonist not given
Procedure: 1. hVR1 FLIPR (Fluorometric Image Plate Reader) Screening Assay
Transfected CHO cells, stably expessing hVR1 (15,000 cells/well) are seeded in 50 ul media in a black clear bottom 384 plate (Greiner) and grown in a humidified incubator (37° C., 2% CO2), 24-30 hours prior to experiment.
Subsequently, the media is removed from the cell plate by inversion and 2 μM Fluo-4 is added using a multidrop (Labsystems). Following the 40 minutes dye incubation in the dark at 37° C. and 2% CO2, the extracellular dye present is washed away using an EMBLA (Scatron), leaving the cells in 40 ul of assay buffer (1×HBSS, 10 mM D-Glucose, 1 mM CaCl2, 10 mM HEPES, 10×7.5% NaHCO3 and 2.5 mM Probenecid).
FLIPR Assay—IC50 Determination Protocol
For IC50 determinations the fluorescence is read using FLIPR filter 1 (em […]). A cellular baseline recording is taken for 30 seconds, followed by a 20 μl addition of 10, titrated half-log concentrations of the test compound, yielding cellular concentration ranging from 3 μM to 0.1 nM. […] This consequently leading to a reduction in fluorescence signal and providing a reduced fluorescence reading, compared with no compound, buffer controls. Data is exported by the FLIPR program as a sum of fluorescence calculated under the curve upon the addition of capsaicin. […]

T1 sequence (Q8NER1 whole entry): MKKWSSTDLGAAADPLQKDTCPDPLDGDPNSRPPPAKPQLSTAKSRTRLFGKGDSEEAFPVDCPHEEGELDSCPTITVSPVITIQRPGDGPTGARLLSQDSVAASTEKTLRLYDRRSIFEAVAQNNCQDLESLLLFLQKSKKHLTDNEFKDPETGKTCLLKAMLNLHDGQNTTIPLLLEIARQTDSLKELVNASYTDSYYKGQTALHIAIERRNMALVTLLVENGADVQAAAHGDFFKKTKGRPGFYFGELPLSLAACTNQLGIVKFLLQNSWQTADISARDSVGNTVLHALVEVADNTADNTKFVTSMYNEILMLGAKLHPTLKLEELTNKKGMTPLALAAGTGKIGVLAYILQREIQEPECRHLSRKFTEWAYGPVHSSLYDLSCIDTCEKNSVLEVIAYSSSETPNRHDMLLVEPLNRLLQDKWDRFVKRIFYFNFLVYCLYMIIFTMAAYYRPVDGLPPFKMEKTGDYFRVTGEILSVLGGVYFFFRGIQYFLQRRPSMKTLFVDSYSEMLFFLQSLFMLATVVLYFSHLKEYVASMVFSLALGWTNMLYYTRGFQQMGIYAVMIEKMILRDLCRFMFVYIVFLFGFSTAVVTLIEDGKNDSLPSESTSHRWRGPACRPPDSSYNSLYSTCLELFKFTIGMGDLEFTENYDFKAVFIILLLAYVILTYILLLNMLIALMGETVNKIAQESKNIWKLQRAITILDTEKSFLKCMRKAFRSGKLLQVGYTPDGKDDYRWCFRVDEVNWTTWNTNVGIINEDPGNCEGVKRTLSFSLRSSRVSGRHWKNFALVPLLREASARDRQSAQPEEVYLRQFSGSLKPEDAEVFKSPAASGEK

Question: With `O=S(=O)(NCc1cccc(C(F)(F)F)c1)c1ccc2sc(CO)nc2c1` [Compound 5, 2-(hydroxymethyl)-N-[3-(trifluoromethyl)benzyl]-1,3-benzothiazole-5-sulfonamide] as the compound, how does the IC50 read?
Answer: 2870 nM
